Publication PMC7699860 (Molecules, 2020)

System: Tel-23 (DNA telomeric G4) (DNA, G4) TAGGGTTAGGGTTAGGGTTAGGG
Test: UV melting at 290 nm
Details: K+ (KCl 50 mM), NaCac 2.5 mM, pH 6.5, G4 0.472 µM

Row | Compound | ΔTm (CG4/CAu = 0.5, derived from two Tm (60 and 57)) [°C] | ΔTm (CG4/CAg = 1.4, derived from two Tm (60 and 60)) [°C]
1 | CCN1[C]N(Cc2c3ccccc3cc3ccccc23)C=C1.CCN1[C]N(Cc2c3ccccc3cc3ccccc23)C=C1.[Au+] | -3 | 
2 | CCN1[C]N(Cc2c3ccccc3cc3ccccc23)C=C1.CCN1[C]N(Cc2c3ccccc3cc3ccccc23)C=C1.[Ag+] |  | 0
